In US7109193B2, “Tricyclic diazepines tocolytic oxytocin receptor antagonists” (Wyeth, priority 2001, dated 2006):

Each compound was assayed against T1, human oxytocin receptor (Homo sapiens, UniProt P30559) (assay: Oxytocin binding in Chinese Hamster Ovary cell membranes expressing human oxytocin receptors). Conditions: 100 nM, CHO cell membranes, [3H]oxytocin, values without parentheses, read-out: OT % inhibition @ 100% nM.
T1 construct: host or cells: CHO cells (pcDNA3.1 vector)
T1 sequence (P30559 1-389): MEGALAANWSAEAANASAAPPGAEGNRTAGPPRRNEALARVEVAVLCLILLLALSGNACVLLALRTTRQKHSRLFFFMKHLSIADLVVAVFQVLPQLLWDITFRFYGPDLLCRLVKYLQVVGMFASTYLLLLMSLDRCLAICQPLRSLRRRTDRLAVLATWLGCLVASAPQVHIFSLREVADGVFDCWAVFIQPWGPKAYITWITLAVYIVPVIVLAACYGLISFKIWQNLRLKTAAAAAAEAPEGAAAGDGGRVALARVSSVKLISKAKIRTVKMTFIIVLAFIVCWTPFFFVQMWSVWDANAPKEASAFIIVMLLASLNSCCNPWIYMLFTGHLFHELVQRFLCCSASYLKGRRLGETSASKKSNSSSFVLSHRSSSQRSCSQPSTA
COc1ccccc1-c1ccc(C(=O)N2Cc3ccc(C(=O)N4CCN(C(C)C)CC4)n3Cc3ccccc32)cc1 [Example 234, (4-Isopropyl-1-piperazinyl){10-[(2′-methoxy[1,1′-biphenyl]-4-yl)carbonyl]-10,11-dihydro-5H-pyrrolo[2,1-c][1,4]benzodiazepin-3-yl}methanone] was tested, and the inhibition at 0.1 µM was 82%. With C=CCN1CCN(C(=O)c2ccc3n2Cc2ccccc2N(C(=O)c2ccc(-c4ccccc4OC)c(C)c2)C3)CC1 [Example 222, (4-Allyl-1-piperazinyl){10-[(2′-methoxy-2-methyl[1,1′-biphenyl]-4-yl)carbonyl]-10,11-dihydro-5H-pyrrolo[2,1-c][1,4]benzodiazepin-3-yl}methanone] the inhibition at 0.1 µM was 84%. COc1cc(C(=O)N2Cc3ccc(C(=O)N4CCN(CCN5CCOCC5)CC4)n3Cc3ccccc32)ccc1-c1cccc2ccccc12 [Example 213, {10-[3-Methoxy-4-(1-naphthyl)benzoyl]-10,11-dihydro-5H-pyrrolo[2,1-c][1,4]benzodiazepin-3-yl}{4-[2-(4-morpholinyl)ethyl]-1-piperazinyl}methanone] gave an inhibition at 0.1 µM of 70%. With COc1cc(C(=O)N2Cc3ccc(C(=O)N(C)C4CCN(C)C4)n3Cc3ccccc32)ccc1-c1ccccc1C (stereo not shown) [Example 189, 10-[(2-Methoxy-2′-methyl[1,1′-biphenyl]-4-yl)carbonyl]-N-methyl-N-(1-methyl-3-pyrrolidinyl)-10,11-dihydro-5H-pyrrolo[2,1-c][1,4]benzodiazepine-3-carboxamide] the inhibition at 0.1 µM was 99%. Work on COc1cc(C(=O)N2Cc3ccc(C(=O)N4CCN(CCN(C)C)CC4)n3Cc3ccccc32)ccc1-c1cccc2ccccc12 [Example 203, {4-[2-(Dimethylamino)ethyl]-1-piperazinyl}{10-[3-methoxy-4-(1-naphthyl)benzoyl]-10,11-dihydro-5H-pyrrolo[2,1-c][1,4]benzodiazepin-3-yl}methanone] yielded an inhibition at 0.1 µM of 62%. In the case of COc1cc(C(=O)N2Cc3ccc(C(=O)N(C)C4CCN(C)CC4)n3Cc3ccccc32)ccc1-c1ccccc1C [Example 179, 10-[(2-Methoxy-2′-methyl[1,1′-biphenyl]-4-yl)carbonyl]-N-methyl-N-(1-methyl-4-piperidinyl)-10,11-dihydro-5H-pyrrolo[2,1-c][1,4]benzodiazepine-3-carboxamide], the inhibition at 0.1 µM is reported as 93%. COc1ccccc1-c1ccc(C(=O)N2Cc3ccc(C(=O)N(C)C4CCN(C)CC4)n3Cc3ccccc32)cc1C [Example 175, 10-[(2′-Methoxy-2-methyl[1,1′-biphenyl]-4-yl)carbonyl]-N-methyl-N-(1-methyl-4-piperidinyl)-10,11-dihydro-5H-pyrrolo[2,1-c][1,4]benzodiazepine-3-carboxamide] gave an inhibition at 0.1 µM of 98%. With COc1ccccc1-c1ccc(C(=O)N2Cc3ccc(C(=O)O)n3Cc3ccccc32)cc1C [Example 9, 10-[(2′-Methoxy-2-methyl-[1,1′-biphenyl]-4-yl)carbonyl]-10,11-dihydro-5H-pyrrolo[2,1-c][1,4]benzodiazepine-3-carboxylic acid] the inhibition at 0.1 µM was 32%. In the case of COc1cc(-c2ccccc2C(F)(F)F)c(Cl)cc1C(=O)N1Cc2ccc(C(=O)O)n2Cc2ccccc21 [Example 15, 10-{[6-Chloro-3-methoxy-2′-trifluoromethyl-[1,1′-biphenyl]-4-yl]carbonyl}-10,11-dihydro-5H-pyrrolo[2,1-c][1,4]benzodiazepine-3-carboxylic acid], the inhibition at 0.1 µM is reported as -4%. Compound COc1cc(C(=O)N2Cc3ccc(C(=O)N4CCN(CCN5CCOCC5)CC4)n3Cc3ccccc32)ccc1-c1ccccc1C [Example 210, {10-[(2-Methoxy-2′-methyl[1,1′-biphenyl]-4-yl)carbonyl]-10,11-dihydro-5H-pyrrolo[2,1-c][1,4]benzodiazepin-3-yl}{4-[2-(4-morpholinyl)ethyl]-1-piperazinyl}methanone] has an inhibition at 0.1 µM of 82%. COc1ccccc1-c1ccc(C(=O)N2Cc3ccc(C(=O)N(C)C4CCN(C)C4)n3Cc3ccccc32)cc1 (stereo not shown) [Example 187, 10-[(2′-Methoxy[1,1′-biphenyl]-4-yl)carbonyl]-N-methyl-N-(1-methyl-3-pyrrolidinyl)-10,11-dihydro-5H-pyrrolo[2,1-c][1,4]benzodiazepine-3-carboxamide] showed an inhibition at 0.1 µM of 100%. In the case of COc1cc(-c2ccccc2C)c(Cl)cc1C(=O)N1Cc2ccc(C(=O)NCCC3CCCN3C)n2Cc2ccccc21 (stereo not shown) [Example 168, 10-[(6-Chloro-3-methoxy-2′-methyl[1,1′-biphenyl]-4-yl)carbonyl]-N-[2-(1-methyl-2-pyrrolidinyl)ethyl]-10,11-dihydro-5H-pyrrolo[2,1-c][1,4]benzodiazepine-3-carboxamide], the inhibition at 0.1 µM is reported as 52%. For COc1ccccc1-c1ccc(C(=O)N2Cc3ccc(C(=O)NCCC4CCCN4C)n3Cc3ccccc32)cc1OC (stereo not shown) [Example 171, 10-[(2,2′-Dimethoxy[1,1′-biphenyl]-4-yl)carbonyl]-N-[2-(1-methyl-2-pyrrolidinyl)ethyl]-10,11-dihydro-5H-pyrrolo[2,1-c][1,4]benzodiazepine-3-carboxamide], the inhibition at 0.1 µM was 40%.
